Laboratory results from US10065941B2, “Aminotriazine derivative and pharmaceutical composition comprising the same” (Shionogi & Co., Ltd., priority 2013, dated 2018).
pIC50: −log10 of the molar value.

Target: human P2X3 receptor (Homo sapiens (Human), UniProt P56373)
Assay: Evaluation of human P2X3 receptor inhibitory activity (Test Example 1)
Format: cell-based
Conditions: C6BU-1 cell transfected with human P2X3 receptor gene, FLIPR 384
Experimental: Stably expressing cell line (C6BU-1 cell transfected with human P2X3 receptor gene (GenBank accession number Y07683) was used. The cells were seeded in a 384-well PDL-coated microtiter plate at a concentration of 3000 cells/well and cultured in the medium (8.3% fetal bovine serum, 8.3% horse serum, and 1% antibiotic and antifungal in DMEM) for one day at 37° C. under 5% carbon dioxide atmosphere. The medium was replaced with 4 μM Fluo-3-AM solution (20 mM HEPES, 137 mM NaCl, 2.7 mM KCl, 0.9 mM MgCl2, 5.0 mM CaCl2, 5.6 mM D-glucose, 2.5 mM probenecid, 0.5% BSA, and 0.04% Pluronic F-127, pH 7.5) and incubated at 37° C. under 5% dioxide carbon atmosphere for one hour. The plate was washed with washing buffer (20 mM HEPES, 137 mM NaCl, 2.7 mM KCl, 0.9 mM MgCl2, 5.0 mM CaCl2, 5.6 mM D-glucose, 2.5 mM probenecid, pH7.5), and each well was added with 20 μL of the washing buffer. The plate was placed in High-Throughput Screening System FLIPR 384 (Molecular Device Co.). Measurement of fluorescence intensity by FLIPR 384 was started, and 20 μL of DMSO solutions containing different concentrations of the test compound as prepared by dilution with dilution buffer (20 mM HEPES, 137 mM NaCl, 2.7 mM KCl, 0.9 mM MgCl2, 5.0 mM CaCl2, 5.6 mM D-glucose, 2.5 mM probenecid, 0.1% Pluronic F-127, pH7.5) were dispensed to each well through the built-in automatic dispenser. Five minutes after, 150 nM ATP solution (25 μL) prepared by dilution with the dilution buffer was dispensed through the built-in automatic dispenser, and the measurement of fluorescence intensity was continued for 4 min. For each well, the specific maximum fluorescence intensity was calculated as the ratio of the maximum fluorescence intensity after addition of the ATP solution to the fluorescence intensity at the starting of the measurement. […] The specific maximum fluorescence intensity and IC50 were calculated using Spotfire (Science & Technology Systems, Inc.)

human P2X3 receptor, sequence (P56373 whole entry): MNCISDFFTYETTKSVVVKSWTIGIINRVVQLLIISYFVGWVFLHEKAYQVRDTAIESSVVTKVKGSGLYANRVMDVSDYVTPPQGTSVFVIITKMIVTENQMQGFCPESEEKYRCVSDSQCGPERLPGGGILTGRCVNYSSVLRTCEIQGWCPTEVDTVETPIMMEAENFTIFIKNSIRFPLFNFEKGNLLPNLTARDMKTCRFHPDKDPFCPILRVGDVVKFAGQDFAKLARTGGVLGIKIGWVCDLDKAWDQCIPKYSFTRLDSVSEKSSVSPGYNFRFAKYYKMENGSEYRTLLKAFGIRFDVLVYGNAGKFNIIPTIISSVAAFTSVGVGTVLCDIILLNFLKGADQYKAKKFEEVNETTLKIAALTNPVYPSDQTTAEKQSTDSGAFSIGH

Compound | pIC50
CO[C@@H](Cn1c(=O)[nH]/c(=N\c2ccc(Oc3cccc(F)n3)cc2)n(Cc2ccc(Cl)cc2)c1=O)C(=O)O [Compound I-125] | 8.30
N#Cc1ccc(Oc2ccc(/N=c3\[nH]c(=O)n(CC(=O)O)c(=O)n3Cc3ccc(Cl)cc3)cc2)nc1 [Compound R-314] | 7.32
C[C@H](C(=O)O)[C@@H](C)n1c(=O)[nH]/c(=N\c2ccc(Oc3ccccn3)cc2)n(Cc2ccc(Cl)cc2)c1=O [Compound I-152] | 8.22
Cc1ccc(Cn2c(=O)n([C@H](C)CC(=O)O)c(=O)[nH]/c2=N\c2ccc(Oc3ncccc3F)cc2)cc1 [Compound I-189] | 7.92
COC(=O)[C@@H](C)Cn1c(=O)[nH]/c(=N\c2ccc(OC3CCC3)c(F)c2)n(Cc2ccc(Cl)cc2)c1=O [Compound R-072] | 7.80
COC(=O)CCn1c(=O)[nH]/c(=N\c2ccc(Oc3ncccc3F)cc2)n(Cc2ccc(CF)cc2)c1=O [Compound R-288] | 7.92
COC(=O)C(C)(C)Cn1c(=O)[nH]/c(=N\c2ccc(Oc3cnccn3)c(C)c2)n(Cc2ccc(Cl)cc2)c1=O [Compound R-129] | 8.15
COC(=O)[C@@H](C)Cn1c(=O)[nH]/c(=N\c2ccc(O[C@H](C)C(F)(F)F)c(F)c2)n(Cc2ccc(Cl)cc2)c1=O [Compound R-090] | 7.15
CCOC(=O)CCCn1c(=O)[nH]/c(=N\c2ccc(Oc3cccc(F)n3)cc2)n(Cc2ccc(C)cc2)c1=O [Compound R-296] | 8.30
O=C(O)CCn1c(=O)[nH]/c(=N\c2ccc(Oc3cccc(F)n3)cc2)n(Cc2ccc(CF)cc2)c1=O [Compound R-275] | 7.64
COC(=O)[C@H](Cn1c(=O)[nH]/c(=N\c2ccc(Oc3ncccc3F)cc2)n(Cc2ccc(Cl)cc2)c1=O)OC [Compound I-099] | 8.22
Cc1cc(/N=c2\[nH]c(=O)n(C[C@H](C)C(=O)O)c(=O)n2Cc2ccc(Cl)s2)ccc1Oc1ncccc1F [Compound I-276] | 7.72
COC(=O)[C@@H](C)Cn1c(=O)[nH]/c(=N\c2ccc(Oc3ccc(C)nn3)c(F)c2)n(Cc2ccc(Cl)cc2)c1=O [Compound R-174] | 8.00
C[C@@H](Cn1c(=O)[nH]/c(=N\c2ccc(Oc3ccccn3)c(F)c2)n(C[C@H]2CC[C@H](C)CC2)c1=O)C(=O)O [Compound I-244] | 8.10
COC(=O)[C@@H](C)Cn1c(=O)[nH]/c(=N\c2ccc(Oc3ccccn3)c(C)c2)n(Cc2ccc(C)cc2)c1=O [Compound I-224] | 8.22
COC(=O)[C@@H](C)Cn1c(=O)[nH]/c(=N\c2ccc(Oc3ccc(F)cn3)cc2)n(Cc2ccc(Cl)s2)c1=O [Compound I-272] | 8.10
COC(=O)CCn1c(=O)[nH]/c(=N\c2ccc(Oc3ccccn3)cc2)n(Cc2ccc(Cl)cc2)c1=O [Compound R-225] | 8.40
Cc1ccc(Cn2c(=O)n([C@@H](C)[C@@H](C)C(=O)O)c(=O)[nH]/c2=N\c2ccc(Oc3ccc(C)cn3)cc2)cc1 [Compound I-113] | 8.30
COC(=O)C(C)Cn1c(=O)[nH]/c(=N\c2ccc(Oc3ccc(OC(F)F)cn3)cc2)n(Cc2ccc(Cl)cc2)c1=O (centres unmarked) [Compound R-026] | 8.10
COC(=O)[C@@H](C)Cn1c(=O)[nH]/c(=N\c2ccc(Oc3ccccn3)c(C)c2)n(Cc2ccc(Cl)cc2)c1=O [Compound I-223] | 7.96
C[C@@H](Cn1c(=O)[nH]/c(=N\c2ccc(Oc3ccc(F)cn3)cc2)n(CC2CC3(CCC3)C2)c1=O)C(=O)O [Compound I-264] | 8.30
CCc1[nH]c2ccc(/N=c3\[nH]c(=O)n(C[C@H](C)C(=O)OC)c(=O)n3Cc3ccc(Cl)cc3)cc2c1C [Compound R-068] | 7.40
COCc1cccc(Oc2ccc(/N=c3\[nH]c(=O)n(C[C@H](C)C(=O)OC)c(=O)n3Cc3ccc(C)cc3)cc2)n1 [Compound I-250] | 7.51
C[C@@H](Cn1c(=O)[nH]/c(=N\c2ccc(Oc3ccc(F)cn3)cc2)n(Cc2ccc(C(F)F)cc2)c1=O)C(=O)O [Compound I-167] | 7.72
C[C@@H](Cn1c(=O)[nH]/c(=N\c2ccc(Oc3cccc(F)n3)cc2)n(Cc2ccc(C(F)F)cc2)c1=O)C(=O)O [Compound I-168] | 7.92
CC(C)(Cn1c(=O)[nH]/c(=N\c2ccc(Oc3cc(C(F)(F)F)ccn3)cc2)n(Cc2ccc(Cl)cc2)c1=O)C(=O)O [Compound I-092] | 7.17
C[C@@H](Oc1ccc(/N=c2\[nH]c(=O)n(CC(C)(C)C(=O)O)c(=O)n2Cc2ccc(Cl)cc2)cc1O[C@H](C)C(F)(F)F)C(F)(F)F [Compound R-096] | 6.81

Compound | pIC50
COC(=O)[C@@H](C)Cn1c(=O)[nH]/c(=N\c2ccc(Oc3cc(Cl)ncn3)cc2)n(Cc2ccc(Cl)cc2)c1=O [Compound R-046] | 8.22
COC(=O)[C@@H](C)Cn1c(=O)[nH]/c(=N\c2ccc(Oc3ccnc(C#N)c3)cc2)n(Cc2ccc(Cl)cc2)c1=O [Compound R-099] | 8.40
Cc1cc(/N=c2\[nH]c(=O)n([C@@H](C)[C@@H](C)C(=O)O)c(=O)n2Cc2ccc(Cl)cc2)ccc1Oc1cncc(F)c1 [Compound R-188] | 8.05
COC(=O)[C@H](C)[C@H](C)n1c(=O)[nH]/c(=N\c2ccc(Oc3cc(Cl)ccn3)cc2)n(Cc2ccc(Cl)cc2)c1=O [Compound I-087] | 6.97
COC(=O)[C@@H](C)Cn1c(=O)[nH]/c(=N\c2ccc(Oc3cncc(OC)c3)cc2)n(Cc2ccc(Cl)cc2)c1=O [Compound R-199] | 8.15
COC(=O)C(C)(C)Cn1c(=O)[nH]/c(=N\c2ccc(Oc3cccc(Cl)n3)cc2)n(Cc2ccc(Cl)cc2)c1=O [Compound I-012] | 7.60
CC(O)c1ccc(Oc2ccc(/N=c3\[nH]c(=O)n(CCC(=O)O)c(=O)n3Cc3ccc(Cl)cc3)cc2)nc1 (centres unmarked) [Compound R-306] | 7.85
C[C@@H](Cn1c(=O)[nH]/c(=N\c2ccc(Oc3ccc(F)cn3)cc2)n(Cc2ccc(Cl)s2)c1=O)C(=O)O [Compound I-274] | 8.30
COC(=O)[C@H](Cn1c(=O)[nH]/c(=N\c2ccc(Oc3cccc(F)n3)cc2)n(Cc2ccc(Cl)cc2)c1=O)OC [Compound I-122] | 8.40
C[C@@H](C(=O)O)[C@H](C)n1c(=O)[nH]/c(=N\c2ccc(Oc3cnc(C#N)cn3)cc2)n(Cc2ccc(Cl)cc2)c1=O [Compound R-224] | 7.92
COC(=O)[C@@H](C)Cn1c(=O)[nH]/c(=N\c2ccc(Oc3cccc(F)n3)cc2)n(Cc2ccc(CF)cc2)c1=O [Compound I-209] | 8.10
C[C@@H](Cn1c(=O)[nH]/c(=N\c2ccc(Oc3nccnc3Cl)cc2)n(Cc2ccc(Cl)cc2)c1=O)C(=O)O [Compound R-211] | 8.15
COC(=O)[C@@H](C)Cn1c(=O)[nH]/c(=N\c2ccc(Oc3cccc(CO)n3)cc2)n(Cc2ccc(C)cc2)c1=O [Compound I-246] | 7.85
C[C@@H](Cn1c(=O)[nH]/c(=N\c2ccc(Oc3cccnn3)c(F)c2)n(Cc2ccc(Cl)cc2)c1=O)C(=O)O [Compound R-037] | 8.15
CC(C)(Cn1c(=O)[nH]/c(=N\c2ccc(Oc3cc(Cl)ccn3)cc2)n(Cc2ccc(Cl)cc2)c1=O)C(=O)O [Compound I-086] | 7.48
O=c1[nH]c(=O)n(Cc2ccc(Cl)cc2)/c(=N/c2ccc(Oc3ccc(F)cn3)cc2)[nH]1 [Compound R-170] | 6.71
COC(=O)C(C)(C)Cn1c(=O)[nH]/c(=N\c2ccc(Oc3ncc(C)s3)cc2)n(Cc2ccc(C)cc2)c1=O [Compound R-215] | 8.22
O=C(O)C1(Cn2c(=O)[nH]/c(=N\c3ccc(Oc4ccc(F)cn4)cc3)n(Cc3ccc(Cl)cc3)c2=O)CC1 [Compound I-018] | 7.92
COC(=O)[C@@H](C)Cn1c(=O)[nH]/c(=N\c2ccc(Oc3cccnn3)cc2)n(Cc2ccc(Cl)cc2)c1=O [Compound R-119] | 8.30
CC(C)(Cn1c(=O)[nH]/c(=N\c2ccc(Oc3cncc(Cl)c3)cc2)n(Cc2ccc(Cl)cc2)c1=O)C(=O)O [Compound R-082] | 8.15
COC(=O)[C@@H](C)Cn1c(=O)[nH]/c(=N\c2ccc(Oc3cccnn3)c(F)c2)n(Cc2ccc(Cl)cc2)c1=O [Compound R-033] | 8.22
C[C@H](CC(=O)O)n1c(=O)[nH]/c(=N\c2ccc(Oc3ccc(F)cn3)cc2)n(Cc2ccc(Cl)cc2)c1=O [Compound I-165] | 7.82
COC(=O)[C@@H](C)Cn1c(=O)[nH]/c(=N\c2ccc(Oc3cccc(OC)n3)cc2)n(Cc2ccc(C)cc2)c1=O [Compound I-221] | 7.96
C[C@@H](Cn1c(=O)[nH]/c(=N\c2ccc(Oc3cc(CO)ccn3)cc2)n(Cc2ccc(Cl)cc2)c1=O)C(=O)O [Compound I-240] | 7.66
CC(C)(Cn1c(=O)[nH]/c(=N\c2ccc(Oc3ncccc3F)cc2)n(Cc2ccc(Cl)cc2)c1=O)C(=O)O [Compound I-009] | 8.15
Cc1ccc(Cn2c(=O)n(C[C@H](C)C(=O)O)c(=O)[nH]/c2=N\c2ccc(Oc3ncccc3F)cc2)cc1 [Compound I-056] | 8.15
